Laboratory results as given in patent US10493077B2, “Fused imidazo-piperidine JAK inhibitor compound” (THERAVANCE BIOPHARMA R&D IP, LLC, priority 2017, dated 2019).
Blank lines part the entries; values can stand above or below the compound they belong to.

Columns and labels:
CDK7 = target: T1, CDK7 (Homo sapiens, UniProt P50613); test: Kinome screen, CDK7; format: binding; conditions: screened at 1 μM
T1 construct: made in house; host or cells: T7 phage in E. coli (BL21-derived) or HEK-293
Experimental: (§1) Kinase-tagged T7 phage strains were grown in parallel in 24-well blocks in an E. coli host derived from the BL21 strain. E. coli were grown to log-phase and infected with T7 phage from a frozen stock (multiplicity of infection=0.4) and incubated with shaking at 32° C. until lysis (90-150 minutes). The lysates were centrifuged (6,000×g) and filtered (0.2 μm) to remove cell debris. The remaining kinases were produced in HEK-293 cells and subsequently tagged with DNA for qPCR detection.
(§2) Streptavidin-coated magnetic beads were treated with biotinylated small molecule ligands for 30 minutes at room temperature to generate affinity resins for kinase assays. The liganded beads were blocked with excess biotin and washed with blocking buffer (SeaBlock (Pierce), 1% BSA, 0.05% Tween 20, 1 mM DTT) to remove unbound ligand and to reduce non-specific phage binding. […] Test compounds were prepared as 40× stocks in 100% DMSO and directly diluted into the assay. All reactions were performed in polypropylene 384-well plates in a final volume of 0.04 ml. […] The beads were then re-suspended in elution buffer (1×PBS, 0.05% Tween 20, 0.5 μM non-biotinylated affinity ligand) and incubated at room temperature with shaking for 30 minutes. The kinase concentration in the eluates was measured by qPCR.

[1] = tested on: BEAS-2B human lung epithelial cells; test: CellTiter-Glo cell viability/cytotoxicity assay; format: cell-based; conditions: BEAS-2B cells, 48 h, concentration at 15% inhibition threshold
Experimental: A CellTiter-Glo luminescent cell viability/cytotoxicity assay was carried out in BEAS-2B human lung epithelial cells (ATCC) under the normal growth condition.
Cells were grown at 37° C. in a 5% CO2 humidified incubator in 50% DMEM/50% F-12 medium (Life Technologies) supplemented with 10% FBS (Hyclone), 100 U/mL penicillin, 100 μg/mL streptomycin (Life Technologies), and 2 mM GlutaMAX (Life Technologies). On day 1 of the assay, cells were seeded at a 500 cells/well density in white 384-well tissue culture plates (Corning) with 25 μL medium, and were allowed to adhere overnight in the incubator. On day 2 of the assay, 5 μL of medium containing dose-responses of test compounds was added, and incubated at 37° C. for 48 h. 30 μL of CellTiter-Glo detection solution (Promega) was subsequently added, mixed on an orbital shaker for 5 min, and incubated for additional 10 min before being read on the EnVision reader. Luminescence signals were recorded and percent DMSO control values were calculated.
For dose-response analysis, percent DMSO control data were plotted vs. compound concentrations to derive dose-response curves by line connecting each data point. The concentration at which each curve crosses the 15% inhibition threshold is defined as CC15.

ALK = target: T2, ALK (Homo sapiens, UniProt Q9UM73); test: Kinome screen, ALK; format: binding; conditions: screened at 1 μM
T2 construct: made in house; host or cells: T7 phage in E. coli (BL21-derived) or HEK-293
Experimental: as §1, §2

PLK4 = target: T3, PLK4 (Homo sapiens, UniProt O00444); test: Kinome screen, PLK4; format: binding; conditions: screened at 1 μM
T3 construct: made in house; host or cells: T7 phage in E. coli (BL21-derived) or HEK-293
Experimental: as §1, §2

PAK4 = target: T4, PAK4 (Homo sapiens, UniProt O96013); test: Kinome screen, PAK4; format: binding; conditions: screened at 1 μM
T4 construct: made in house; host or cells: T7 phage in E. coli (BL21-derived) or HEK-293
Experimental: as §1, §2

CSF1R = target: T5, CSF1R (Homo sapiens, UniProt P07333); test: Kinome screen, CSF1R; format: binding; conditions: screened at 1 μM
T5 construct: made in house; host or cells: T7 phage in E. coli (BL21-derived) or HEK-293
Experimental: as §1, §2

VEGFR2 = target: T6, VEGFR2 (Homo sapiens, UniProt P35968); test: Kinome screen, VEGFR2; format: binding; conditions: screened at 1 μM
T6 construct: made in house; host or cells: T7 phage in E. coli (BL21-derived) or HEK-293
Experimental: as §1, §2

SYK = target: T7, SYK (Homo sapiens, UniProt P43405); test: Kinome screen, SYK; format: binding; conditions: screened at 1 μM
T7 construct: made in house; host or cells: T7 phage in E. coli (BL21-derived) or HEK-293
Experimental: as §1, §2

PKAC-ALPHA = target: T8, PKAC-ALPHA (Homo sapiens, UniProt P17612); test: Kinome screen, PKAC-ALPHA; format: binding; conditions: screened at 1 μM
T8 construct: made in house; host or cells: T7 phage in E. coli (BL21-derived) or HEK-293
Experimental: as §1, §2

KIT = target: T9, KIT (Homo sapiens, UniProt P10721); test: Kinome screen, KIT; format: binding; conditions: screened at 1 μM
T9 construct: made in house; host or cells: T7 phage in E. coli (BL21-derived) or HEK-293
Experimental: as §1, §2

GSK3B = target: T10, GSK3B (Homo sapiens, UniProt P49841); test: Kinome screen, GSK3B; format: binding; conditions: screened at 1 μM
T10 construct: made in house; host or cells: T7 phage in E. coli (BL21-derived) or HEK-293
Experimental: as §1, §2

CDK2 = target: T11, CDK2 (Homo sapiens, UniProt P24941); test: Kinome screen, CDK2; format: binding; conditions: screened at 1 μM
T11 construct: made in house; host or cells: T7 phage in E. coli (BL21-derived) or HEK-293
Experimental: as §1, §2

SRC = target: T12, SRC (Homo sapiens, UniProt P12931); test: Kinome screen, SRC; format: binding; conditions: screened at 1 μM
T12 construct: made in house; host or cells: T7 phage in E. coli (BL21-derived) or HEK-293
Experimental: as §1, §2

AURKA = target: T13, AURKA (Homo sapiens, UniProt O14965); test: Kinome screen, AURKA; format: binding; conditions: screened at 1 μM
T13 construct: made in house; host or cells: T7 phage in E. coli (BL21-derived) or HEK-293
Experimental: as §1, §2

CDK9 = target: T14, CDK9 (Homo sapiens, UniProt P50750); test: Kinome screen, CDK9; format: binding; conditions: screened at 1 μM
T14 construct: made in house; host or cells: T7 phage in E. coli (BL21-derived) or HEK-293
Experimental: as §1, §2

EPHB6 = target: T15, EPHB6 (Homo sapiens, UniProt O15197); test: Kinome screen, EPHB6; format: binding; conditions: screened at 1 μM
T15 construct: made in house; host or cells: T7 phage in E. coli (BL21-derived) or HEK-293
Experimental: as §1, §2

SLK = target: T16, SLK (Homo sapiens, UniProt Q9H2G2); test: Kinome screen, SLK; format: binding; conditions: screened at 1 μM
T16 construct: made in house; host or cells: T7 phage in E. coli (BL21-derived) or HEK-293
Experimental: as §1, §2

35 different kinases = test: Kinome screen: GINI coefficient; format: binding; conditions: panel of 35 different kinases; higher number = more selective
Experimental: as §1
as §2, with “The” for “The beads were then re-suspended in elution buffer (1×PBS, 0.05% Tween 20, 0.5 μM non-biotinylated affinity ligand) and incubated at room temperature with shaking for 30 minutes. The”
Both compounds 1 and C-1 were screened against 35 different kinases. The Gini coefficient was determined for both compounds. […]

[2] = Dynamic moisture sorption assessment; format: physicochemical; conditions: for weight gain, 5% to 70% relative humidity / weight gain, 5% to 90% relative humidity: room temperature
Experimental: Dynamic moisture sorption (DMS) measurement was performed using a VTI atmospheric microbalance, SGA-100 system (VTI Corp., Hialeah, Fla. 33016). A weighed sample was used and the humidity was lowest possible value (close to 0% RH) at the start of the analysis. The DMS analysis consisted of an initial drying step (0% RH) for 120 minutes, followed by two cycles of sorption and desorption with a scan rate of 5% RH/step over the humidity range of 5% RH to 90% RH. The DMS run was performed isothermally at 25° C.

[3] = Solid state stability assessment of Form 1; format: physicochemical
Experimental: Samples of the Form 1 crystalline free form of the invention were stored at 25° C. and 60% relative humidity (RH) and at 40° C. and 75% RH under two configurations a) open glass vial and b) closed glass vial placed inside an HDPE bottle containing desiccant. HDPE bottle was induction sealed. At specific intervals, the contents of a representative sample were removed and analyzed by HPLC for chemical purity (shown below as HPLC Purity (% a/a)).

T9 sequence (P10721 26-976): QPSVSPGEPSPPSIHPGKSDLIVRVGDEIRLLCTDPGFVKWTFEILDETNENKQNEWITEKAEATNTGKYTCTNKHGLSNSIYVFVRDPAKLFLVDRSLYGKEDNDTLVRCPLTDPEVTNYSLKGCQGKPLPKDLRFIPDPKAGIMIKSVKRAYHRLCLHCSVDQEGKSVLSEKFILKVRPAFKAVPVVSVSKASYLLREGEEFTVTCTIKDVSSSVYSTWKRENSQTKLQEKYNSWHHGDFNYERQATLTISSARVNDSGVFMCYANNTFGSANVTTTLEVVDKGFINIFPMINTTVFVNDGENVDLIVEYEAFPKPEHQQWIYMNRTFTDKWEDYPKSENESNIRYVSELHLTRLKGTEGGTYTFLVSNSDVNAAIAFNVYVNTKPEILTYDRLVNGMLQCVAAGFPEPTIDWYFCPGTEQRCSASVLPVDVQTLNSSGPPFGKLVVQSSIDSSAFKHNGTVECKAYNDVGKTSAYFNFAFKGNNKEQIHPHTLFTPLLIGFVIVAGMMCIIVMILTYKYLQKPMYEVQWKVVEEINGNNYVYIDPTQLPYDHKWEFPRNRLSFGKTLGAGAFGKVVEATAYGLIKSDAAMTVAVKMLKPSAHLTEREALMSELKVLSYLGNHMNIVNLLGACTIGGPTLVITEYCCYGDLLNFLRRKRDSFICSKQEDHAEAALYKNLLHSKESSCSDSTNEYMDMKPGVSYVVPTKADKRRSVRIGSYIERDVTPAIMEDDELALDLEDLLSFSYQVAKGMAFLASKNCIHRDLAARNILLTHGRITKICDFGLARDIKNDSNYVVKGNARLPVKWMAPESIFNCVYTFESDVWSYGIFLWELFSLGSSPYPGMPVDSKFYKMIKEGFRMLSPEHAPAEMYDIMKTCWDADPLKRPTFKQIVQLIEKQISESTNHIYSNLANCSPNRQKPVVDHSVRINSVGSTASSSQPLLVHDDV
T5 sequence (P07333 20-972): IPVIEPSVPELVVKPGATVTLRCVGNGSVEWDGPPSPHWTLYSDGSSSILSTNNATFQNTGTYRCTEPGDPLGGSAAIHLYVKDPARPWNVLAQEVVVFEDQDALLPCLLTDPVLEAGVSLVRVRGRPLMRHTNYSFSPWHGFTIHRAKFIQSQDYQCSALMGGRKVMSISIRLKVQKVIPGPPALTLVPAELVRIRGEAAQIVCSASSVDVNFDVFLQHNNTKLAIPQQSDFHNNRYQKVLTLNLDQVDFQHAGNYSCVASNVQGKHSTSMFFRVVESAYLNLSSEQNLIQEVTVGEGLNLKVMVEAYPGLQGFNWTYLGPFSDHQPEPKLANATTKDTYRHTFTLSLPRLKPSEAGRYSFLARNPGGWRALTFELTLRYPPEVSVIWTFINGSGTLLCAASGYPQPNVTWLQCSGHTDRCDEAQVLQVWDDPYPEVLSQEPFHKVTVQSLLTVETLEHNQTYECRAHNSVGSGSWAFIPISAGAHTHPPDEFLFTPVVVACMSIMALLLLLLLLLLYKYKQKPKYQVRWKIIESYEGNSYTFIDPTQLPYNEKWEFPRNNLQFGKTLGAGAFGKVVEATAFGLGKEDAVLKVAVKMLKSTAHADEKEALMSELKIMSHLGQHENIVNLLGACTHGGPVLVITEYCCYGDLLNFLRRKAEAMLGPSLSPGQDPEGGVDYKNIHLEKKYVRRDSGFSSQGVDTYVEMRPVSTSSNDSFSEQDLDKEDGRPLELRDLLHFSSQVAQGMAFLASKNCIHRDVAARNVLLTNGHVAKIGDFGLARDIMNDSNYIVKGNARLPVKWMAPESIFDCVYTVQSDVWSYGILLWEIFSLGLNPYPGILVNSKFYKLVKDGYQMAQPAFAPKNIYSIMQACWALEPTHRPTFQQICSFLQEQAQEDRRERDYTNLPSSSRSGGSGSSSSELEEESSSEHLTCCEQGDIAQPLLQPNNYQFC
T4 sequence (O96013 whole entry): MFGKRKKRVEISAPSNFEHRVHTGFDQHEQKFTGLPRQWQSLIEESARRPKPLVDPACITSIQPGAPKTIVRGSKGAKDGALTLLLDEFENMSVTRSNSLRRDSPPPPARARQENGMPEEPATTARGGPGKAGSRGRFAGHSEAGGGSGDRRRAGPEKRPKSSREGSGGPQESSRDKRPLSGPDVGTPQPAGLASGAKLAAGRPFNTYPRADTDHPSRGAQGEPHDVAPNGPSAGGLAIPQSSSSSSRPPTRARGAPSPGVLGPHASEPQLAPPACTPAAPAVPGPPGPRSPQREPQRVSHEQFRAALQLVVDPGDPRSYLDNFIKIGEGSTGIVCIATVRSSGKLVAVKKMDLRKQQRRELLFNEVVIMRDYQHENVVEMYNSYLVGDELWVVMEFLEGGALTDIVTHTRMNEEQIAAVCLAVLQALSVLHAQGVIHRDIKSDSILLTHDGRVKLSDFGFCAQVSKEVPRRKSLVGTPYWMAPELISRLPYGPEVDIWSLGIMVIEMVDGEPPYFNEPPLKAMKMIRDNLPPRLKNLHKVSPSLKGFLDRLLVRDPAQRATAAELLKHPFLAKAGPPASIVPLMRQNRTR
T2 sequence (Q9UM73 19-1620): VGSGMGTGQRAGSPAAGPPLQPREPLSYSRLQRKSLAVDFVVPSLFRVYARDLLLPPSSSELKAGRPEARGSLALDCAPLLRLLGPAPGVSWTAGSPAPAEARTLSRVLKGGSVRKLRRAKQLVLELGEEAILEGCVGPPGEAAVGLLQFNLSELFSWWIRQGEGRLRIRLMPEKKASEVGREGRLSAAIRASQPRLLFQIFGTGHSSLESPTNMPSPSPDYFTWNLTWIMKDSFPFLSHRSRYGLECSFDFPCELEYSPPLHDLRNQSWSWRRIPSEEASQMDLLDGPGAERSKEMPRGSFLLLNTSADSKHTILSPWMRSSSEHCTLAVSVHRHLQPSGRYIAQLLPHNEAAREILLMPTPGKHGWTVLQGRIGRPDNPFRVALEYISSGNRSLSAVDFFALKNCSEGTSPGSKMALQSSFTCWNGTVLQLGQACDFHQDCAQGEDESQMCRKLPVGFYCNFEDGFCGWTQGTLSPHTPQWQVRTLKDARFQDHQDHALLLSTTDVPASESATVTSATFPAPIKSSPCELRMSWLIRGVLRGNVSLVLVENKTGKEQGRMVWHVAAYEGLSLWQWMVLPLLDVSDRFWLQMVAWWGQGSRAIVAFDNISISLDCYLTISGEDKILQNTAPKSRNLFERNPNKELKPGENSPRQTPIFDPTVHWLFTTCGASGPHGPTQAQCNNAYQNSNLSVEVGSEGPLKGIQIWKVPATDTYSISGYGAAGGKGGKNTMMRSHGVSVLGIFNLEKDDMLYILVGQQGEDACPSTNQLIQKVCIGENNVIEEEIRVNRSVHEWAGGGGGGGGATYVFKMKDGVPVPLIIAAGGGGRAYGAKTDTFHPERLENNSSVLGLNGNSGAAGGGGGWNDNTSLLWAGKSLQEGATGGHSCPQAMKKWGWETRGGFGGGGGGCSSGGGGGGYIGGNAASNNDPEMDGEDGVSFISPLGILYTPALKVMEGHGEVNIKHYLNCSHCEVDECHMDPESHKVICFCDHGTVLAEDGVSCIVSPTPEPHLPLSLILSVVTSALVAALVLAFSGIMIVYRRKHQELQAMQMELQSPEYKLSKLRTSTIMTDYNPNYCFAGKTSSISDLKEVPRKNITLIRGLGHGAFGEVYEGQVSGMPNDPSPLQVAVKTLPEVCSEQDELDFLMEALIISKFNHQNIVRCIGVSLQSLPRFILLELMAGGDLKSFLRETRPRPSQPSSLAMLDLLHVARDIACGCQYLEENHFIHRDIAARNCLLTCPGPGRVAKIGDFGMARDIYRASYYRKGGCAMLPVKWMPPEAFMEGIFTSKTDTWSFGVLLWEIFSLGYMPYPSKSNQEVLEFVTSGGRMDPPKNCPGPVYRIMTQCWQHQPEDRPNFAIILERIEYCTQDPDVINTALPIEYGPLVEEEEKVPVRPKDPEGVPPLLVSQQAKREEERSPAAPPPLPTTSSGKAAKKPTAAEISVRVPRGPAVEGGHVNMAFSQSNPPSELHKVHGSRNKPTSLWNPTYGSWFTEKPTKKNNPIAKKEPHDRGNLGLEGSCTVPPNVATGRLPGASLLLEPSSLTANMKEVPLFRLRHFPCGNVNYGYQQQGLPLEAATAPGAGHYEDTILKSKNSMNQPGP
T13 sequence (O14965 whole entry): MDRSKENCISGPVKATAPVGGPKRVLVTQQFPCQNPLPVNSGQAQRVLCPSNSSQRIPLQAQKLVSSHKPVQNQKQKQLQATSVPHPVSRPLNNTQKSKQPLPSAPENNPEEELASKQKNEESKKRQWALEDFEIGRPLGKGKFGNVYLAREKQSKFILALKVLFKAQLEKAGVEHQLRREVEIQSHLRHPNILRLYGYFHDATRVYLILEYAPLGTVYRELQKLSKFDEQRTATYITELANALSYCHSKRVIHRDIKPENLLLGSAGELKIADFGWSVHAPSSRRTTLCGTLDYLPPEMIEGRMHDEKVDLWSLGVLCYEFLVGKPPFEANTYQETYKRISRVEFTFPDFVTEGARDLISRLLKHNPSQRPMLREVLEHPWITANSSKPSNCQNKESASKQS
T10 sequence (P49841 whole entry): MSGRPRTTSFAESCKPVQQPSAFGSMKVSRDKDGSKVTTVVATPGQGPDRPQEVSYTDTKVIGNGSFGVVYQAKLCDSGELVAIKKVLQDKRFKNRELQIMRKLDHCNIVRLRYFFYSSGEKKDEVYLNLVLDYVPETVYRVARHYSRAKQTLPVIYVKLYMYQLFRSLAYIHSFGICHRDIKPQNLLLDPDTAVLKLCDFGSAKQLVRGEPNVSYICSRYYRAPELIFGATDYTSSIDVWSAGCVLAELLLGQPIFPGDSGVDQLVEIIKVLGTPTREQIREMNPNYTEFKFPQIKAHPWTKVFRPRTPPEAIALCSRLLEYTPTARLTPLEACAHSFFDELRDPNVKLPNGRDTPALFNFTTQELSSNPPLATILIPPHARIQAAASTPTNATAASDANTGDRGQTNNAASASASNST

inhibition at 1 µM (CDK7): 99% | inhibition at 1 µM (ALK): 81% | inhibition at 1 µM (PLK4): 68% | inhibition at 1 µM (PAK4): 99% | inhibition at 1 µM (CSF1R): 100% | inhibition at 1 µM (VEGFR2): 63% | inhibition at 1 µM (SYK): 78% | inhibition at 1 µM (PKAC-ALPHA): 70% | inhibition at 1 µM (KIT): 99% | inhibition at 1 µM (GSK3B): 68% | inhibition at 1 µM (CDK2): 53% | inhibition at 1 µM (SRC): 100% | inhibition at 1 µM (AURKA): 57% | inhibition at 1 µM (CDK9): 95% | inhibition at 1 µM (EPHB6): 98% | inhibition at 1 µM (SLK): 100%
SMILES: CCc1cc(O)c(F)cc1-c1ccc2c(-c3nc4c([nH]3)CCN(C(=O)CN3CCOCC3)C4)n[nH]c2c1 [C-1, 1-(2-(6-(2-Ethyl-5-fluoro-4-hydroxyphenyl)-1H-indazol-3-yl)-1,4,6,7-tetrahydro-5H-imidazo[4,5-c]pyridin-5-yl)-2-morpholinoethan-1-one, reference compound]
CC15 [1]: 630 nM | GINI coefficient (35 different kinases): 0.46

SMILES: CCc1cc(O)c(F)cc1-c1cc(F)c2c(-c3nc4c([nH]3)CCN(C(=O)CN3CCOCC3)C4)n[nH]c2c1 [Form 1, 1-(2-(6-(2-Ethyl-5-fluoro-4-hydroxyphenyl)-4-fluoro-1H-indazol-3-yl)-1,4,6,7-tetrahydro-5H-imidazo[4,5-c]pyridin-5-yl)-2-morpholinoethan-1-one]
hygroscopicity [2]: slightly-hygroscopic | weight gain, 5% to 70% relative humidity [2]: about 0.99% | weight gain, 5% to 90% relative humidity [2]: about 1.32% | HPLC Purity ([3]; 2 weeks, 40° C./75% RH Open): 98.72 % a/a | HPLC Purity ([3]; 4 weeks, 25° C./60% RH Closed With Desiccant): 98.75 % a/a | HPLC Purity ([3]; 4 weeks, 25° C./60% RH Open): 98.75 % a/a | HPLC Purity ([3]; 4 weeks, 40° C./75% RH Closed With Desiccant): 98.75 % a/a | HPLC Purity ([3]; 4 weeks, 40° C./75% RH Open): 98.70 % a/a | HPLC Purity ([3]; 8 weeks, 25° C./60% RH Closed With Desiccant): 98.87 % a/a | HPLC Purity ([3]; 8 weeks, 25° C./60% RH Open): 98.75 % a/a | HPLC Purity ([3]; 8 weeks, 40° C./75% RH Closed With Desiccant): 98.80 % a/a | HPLC Purity ([3]; 8 weeks, 40° C./75% RH Open): 98.97 % a/a | HPLC Purity ([3]; 24 weeks, 25° C./60% RH Closed With Desiccant): 99.02 % a/a | HPLC Purity ([3]; 24 weeks, 25° C./60% RH Open): 98.78 % a/a | HPLC Purity ([3]; 24 weeks, 40° C./75% RH Closed With Desiccant): 99.06 % a/a | HPLC Purity ([3]; 24 weeks, 40° C./75% RH Open): 98.89 % a/a | HPLC Purity ([3]; 36 weeks, 25° C./60% RH Closed With Desiccant): 98.80 % a/a | HPLC Purity ([3]; 36 weeks, 25° C./60% RH Open): 98.75 % a/a | HPLC Purity ([3]; 36 weeks, 40° C./75% RH Closed With Desiccant): 98.86 % a/a | HPLC Purity ([3]; 36 weeks, 40° C./75% RH Open): 98.71 % a/a | changes in chemical purity ([3]; after 36 weeks at accelerated conditions of 40° C. and 75% relative humidity): no statistically significant changes | HPLC Purity ([3]; time point 0 weeks): 98.73 % a/a

SMILES: CCc1cc(O)c(F)cc1-c1cc(F)c2c(-c3nc4c([nH]3)CCN(C(=O)CN3CCOCC3)C4)n[nH]c2c1 [Form 2, 1-(2-(6-(2-Ethyl-5-fluoro-4-hydroxyphenyl)-4-fluoro-1H-indazol-3-yl)-1,4,6,7-tetrahydro-5H-imidazo[4,5-c]pyridin-5-yl)-2-morpholinoethan-1-one]
hygroscopicity [2]: non-hygroscopic | weight gain, 5% to 70% relative humidity [2]: about 0.12% | weight gain, 5% to 90% relative humidity [2]: about 0.18%
